Test results reported in ChEMBL document CHEMBL1142271, “New fused benzazepine as selective D3 receptor antagonists. Synthesis and biological evaluation. Part one: [h]-fused tricyclic systems” (Bioorg Med Chem Lett, 2008).

Tests used:
Type in all cases: ADME, organism-based
[1] = Blood clearance in rat; details: whole blood
[2] = Ratio of drug level brain to blood in iv dosed rat after 1 hr; details: read-out: BBR
[3] = Oral bioavailability in rat; details: in vivo
[4] = Half life in rat; details: in vivo
[5] = Volume of distribution in rat; details: in vivo

| SMILES | clearance [1] [mL/min/kg] | Kp at 1 h [2] | bioavailability [3] [%] | half-life [4] [h] | Vd [5] [L/kg] |
| --- | --- | --- | --- | --- | --- |
| Cc1ccc2c(-c3nnc(SCCCN4CCc5cc6nc(N7CCCCC7)oc6cc5CC4)n3C)cccc2n1 | 76 | 5.1 | 3 | – | – |
| Cc1ccc2c(-c3nnc(SCCCN4CCc5cc6nc(C(F)(F)F)oc6cc5CC4)n3C)cccc2n1 | 20 | 2.8 | 31 | 3.3 | 5 |
| Cc1nc2cc3c(cc2o1)CCN(CCCSc1nnc(-c2ccc(C(F)(F)F)cc2)n1C)CC3 | 62 | 2.9 | 17 | 1.5 | 5.4 |
| Cc1ncoc1-c1nnc(SCCCN2CCc3cc4nc(CC5CC5)oc4cc3CC2)n1C | 26 | – | 32 | – | 1.7 |
| Cc1ccc2c(-c3nnc(SCCCN4CCc5cc6nc(CC7CC7)oc6cc5CC4)n3C)cccc2n1 | 50 | – | 25 | – | 4.3 |
| CCc1nc2cc3c(cc2o1)CCN(CCCSc1nnc(-c2ccc(C(F)(F)F)cc2)n1C)CC3 | 48 | 3.1 | 17 | 1.1 | 3.4 |
| Cc1ncoc1-c1nnc(SCCCN2CCc3cc4nc(C(C)C)oc4cc3CC2)n1C | 152 | – | – | – | – |

The remaining lines, values ahead:

| clearance [1] [mL/min/kg] | Kp at 1 h [2] | bioavailability [3] [%] | half-life [4] [h] | Vd [5] [L/kg] | SMILES |
| --- | --- | --- | --- | --- | --- |
| 81 | – | – | – | – | Cc1ccc2c(-c3nnc(SCCCN4CCc5cc6nc(C(C)C)oc6cc5CC4)n3C)cccc2n1 |
| 29 | 1.1 | 45 | 1.6 | 2.8 | Cc1ccc2c(-c3nnc(SCCCN4CCc5cc6nc(N(C)C)oc6cc5CC4)n3C)cccc2n1 |
| 137 | – | – | – | – | Cc1ccc2c(-c3nnc(SCCCN4CCc5cc6nc(C(C)(C)C)oc6cc5CC4)n3C)cccc2n1 |
| 36 | 0.2 | 10 | 1.5 | 3.5 | Cc1ccc2c(-c3nnc(SCCCN4CCc5cc6c(cc5CC4)C(=O)N(C(C)C)C6)n3C)cccc2n1 |
| 34 | 4.4 | 25 | 2.2 | 4.3 | Cc1ccc2c(-c3nnc(SCCCN4CCc5cc6nc(C)sc6cc5CC4)n3C)cccc2n1 |
| 47 | 5.4 | 34 | 1.7 | 4.31 | Cc1ccc2c(-c3nnc(SCCCN4CCc5cc6nc(C)oc6cc5CC4)n3C)cccc2n1 |
| 57 | – | 31 | 1.6 | 5.1 | CCc1nc2cc3c(cc2o1)CCN(CCCSc1nnc(-c2cccc4nc(C)ccc24)n1C)CC3 |
| 32 | 0.2 | – | 1.2 | 2.4 | Cc1ccc2c(-c3nnc(SCCCN4CCc5cc6c(cc5CC4)N(S(C)(=O)=O)CCO6)n3C)cccc2n1 |
| 40 | 7.7 | 22 | 1.3 | 3.3 | Cc1ccc2c(-c3nnc(SCCCN4CCc5cc6onc(C)c6cc5CC4)n3C)cccc2n1 |
| 62 | – | 6 | – | – | CCCc1nc2cc3c(cc2o1)CCN(CCCSc1nnc(-c2cccc4nc(C)ccc24)n1C)CC3 |
